Laboratory results from PMC12724303 (Journal of Virology, 2025).
Like-named read-outs stand apart in the source and are kept apart here.

What was measured:
[1] = test system: SARS-CoV-2 virion-associated aminophospholipids (procoagulant activity); assay type: biochemical
SARS-CoV-2 Delta variant = assay type: cell-based
SARS-CoV-2 Wuhan variant [2] = assay type: cell-based
SARS-CoV-2 Wuhan variant [3] = test: microbe, parasite or virus in culture; assay type: cell-based
[4] = test system: SARS-CoV-2 Wuhan variant virions
[5] = test system: SARS-CoV-2 Wuhan variant particles (N protein and spike protein)
SARS-CoV-2 Wuhan variant [6] = assay type: cell-based; remark: listed apart in the source
SARS-CoV-2 Beta variant = assay type: cell-based
[7] = test system: SARS-CoV-2 viral particles; assay type: cell-based
[8] = test system: SARS-CoV-2 Wuhan variant in Vero E6/TMPRSS2 cells; assay type: cell-based
[9] = test system: SARS-CoV-2 Wuhan variant in Vero E6 cells; assay type: cell-based

## COC[C@H]1O[C@@H]2O[C@H]3[C@H](O)[C@@H](OC)[C@@H](O[C@H]4[C@H](O)[C@@H](OC)[C@@H](O[C@H]5[C@H](O)[C@@H](OC)[C@@H](O[C@H]6[C@H](O)[C@@H](OC)[C@@H](O[C@H]7[C@H](O)[C@@H](OC)[C@@H](O[C@H]8[C@H](O)[C@@H](OC)[C@@H](O[C@H]1[C@H](O)[C@H]2OC)O[C@@H]8COC)O[C@@H]7COC)O[C@@H]6COC)O[C@@H]5COC)O[C@@H]4COC)O[C@@H]3COC [DM-β-CyD, 2,6-di-O-methyl-β-cyclodextrin]
[1]; 5 mM
  effect on clotting time: no effect on clotting time
SARS-CoV-2 Delta variant
  infection inhibitory activity (cytopathic effect): showed infection inhibitory activity
SARS-CoV-2 Wuhan variant [2]
  infection inhibitory activity (cytopathic effect): showed infection inhibitory activity
SARS-CoV-2 Wuhan variant [3]
  selectivity index (SI = CC50/IC50): 4.04
SARS-CoV-2 Wuhan variant [3]; Severe acute respiratory syndrome coronavirus 2, VeroE6/TMPRSS2, 72 h, read-out: IC50 against SARS-CoV-2 infection
  IC50: 1420 µM

## COC[C@H]1O[C@@H]2O[C@H]3[C@H](OC(C)=O)[C@@H](OC)[C@@H](O[C@H]4[C@H](OC(C)=O)[C@@H](OC)[C@@H](O[C@H]5[C@H](OC(C)=O)[C@@H](OC)[C@@H](O[C@H]6[C@H](OC(C)=O)[C@@H](OC)[C@@H](O[C@H]7[C@H](OC(C)=O)[C@@H](OC)[C@@H](O[C@H]8[C@H](OC(C)=O)[C@@H](OC)[C@@H](O[C@H]1[C@H](OC(C)=O)[C@H]2OC)O[C@@H]8COC)O[C@@H]7COC)O[C@@H]6COC)O[C@@H]5COC)O[C@@H]4COC)O[C@@H]3COC [DMA-β-CyD]
[1]
  effect on clotting time: insufficient recovery of clotting time
[1]; 10 mM, 37°C
  effect on clotting time: markedly prolonged clotting time
[4]
  binding of viral particles to anti-RBD antibody-coated plate (RNA quantification): concentration-dependent decrease in binding
[5]
  band intensities of N protein and spike protein: marked reduction in the band intensities of both proteins
SARS-CoV-2 Wuhan variant [6]
  intracellular SARS-CoV-2 gRNA level (viral entry): decreased in a DMA-β-CyD-concentration-dependent manner
  viral entry: inhibited the entry of these particles
SARS-CoV-2 Beta variant
  concentration at the highest dilution completely inhibiting the cytopathic effect: 625 µM
  highest dilution completely inhibiting the cytopathic effect: 16 fold
SARS-CoV-2 Delta variant
  concentration at the highest dilution completely inhibiting the cytopathic effect: 156 µM
  highest dilution completely inhibiting the cytopathic effect: 64 fold
  infection inhibitory activity (cytopathic effect): showed infection inhibitory activity
[7]
  reduction of infectivity by pretreatment of viral particles: 2.25–2.67
[8]
  infectivity of treated virus: 7.34 × 10^3 TCID50/mL
SARS-CoV-2 Wuhan variant [2]
  concentration at the highest dilution completely inhibiting the cytopathic effect: 156 µM
  highest dilution completely inhibiting the cytopathic effect: 64 fold
  infection inhibitory activity (cytopathic effect): showed infection inhibitory activity
[9]
  reduction in TCID50/mL compared with the control: 2.22

## hydroxypropyl-α-cyclodextrin [HP-α-CyD]
SARS-CoV-2 Wuhan variant [2]
  infection inhibitory activity (cytopathic effect): showed infection inhibitory activity
